In the NIST ThermoML archive (doi:10.1016/j.jct.2012.10.017):
Numbers after ± are expanded uncertainties.

Details: Liquid, Ebulliometric method (Recirculating still)

| SMILES | vapor or sublimation pressure (449.39 K) [kPa] | vapor or sublimation pressure (428.65 K) [kPa] |
| --- | --- | --- |
| Cc1ccc(C(C)C)cc1 [1-(1-methylethyl)-4-methylbenzene] | 100.7 ± 0.6 | – |
| CC1=CCC2CC1C2(C)C (configuration not stated) [2-pinene] | – | 100.7 ± 1.1 |
